“Also recorded” adds a separate entry of the source.
What was measured:
BRD4 = target: T1, BRD4 (Mus musculus, UniProt Q9ESU6); experiment: Western blot, BRD4 degradation in 4T1 cells; format: cell-based; conditions: 24 hours
T1 construct: Western blot after PROTAC (ARV-771 release, VHL recruiting)
Protocol: (§1) Accordingly, Western blot analysis was performed to confirm the anticancer ability by evaluating the presence or absence of degradation of BRD4 and other related proteins (e.g., c-Myc and Bcl-2) when cancer cells were treated with the complex for cancer targeting (ECMal-PROTAC) of example 1. The complex for cancer targeting (ECMal-PROTAC) of example 1 and ARV-771 were prepared as samples.
(§2) First, 1×10^5 4T1 cells were dispensed into each well of a 6-well culture plate and cultured for 24 hours at 37° C. and 5% carbon dioxide atmosphere. The cell culture medium was supplemented with various concentrations of ARV-771 (0 to 10 μM) or the complex for cancer targeting (ECMal-PROTAC) of example 1 (0 to 10 μM), and cultured at 37° C. for 24 hours. After the culture was completed, the cells were washed 3 times with PBS, and lysed with a lysis buffer containing 1% […]. Cell debris from the recovered lysate was removed by centrifugation at 12,000 rpm for 25 minutes. After recovering the supernatant, the protein amount was measured using a BCA kit. The supernatant was loaded onto a 10% sodium dodecyl sulfate-polyacrylamide gel. Electrophoresis (SDS-PAGE) was performed, followed by blotting onto a polyvinylidene difluoride (PVDF) membrane. After blotting, the PVDF membrane was treated with 5% BSA-containing tris buffered saline containing 0.1% Tween 20 (TBS-T) for 2 hours to suppress the non-specific binding of IgG (immunoglobulin G). It was immediately exposed to a rabbit anti-mouse primary antibody (1,000:1). After treating at 4° C. for 24 hours, the PVDF membrane was washed 3 times with TBS-T and further incubated with an HRP-conjugated mouse anti-rabbit IgG antibody at room temperature for 1 hour. The immunoreactive bands on the PVDF membrane were analyzed through an ECL (enhanced chemiluminescence) system.

BRD4 and c-Myc = experiment: Immunofluorescence of excised cancer tissue (DAPI, anti-BRD4, anti-c-Myc); format: in vivo, mouse; conditions: vs comparison group and control group
Protocol: (§3) The control group was administered saline (10 mg/kg) once every 3 days for 15 days through the tail vein (total 4 administrations). The comparison group was administered ARV-771 (10 mg/kg) once every 3 days for 15 days through the tail vein (total 4 administrations). The example group was administered ECMal-PROTAC 10 mg/kg (wquiv. to ARV-771) of example 1 once every 3 days for 15 days through the tail vein (total 4 administrations).
FIG. 33 is an image taken with a confocal laser scanning microscope after staining cancer tissue excised from the control group (Control, Saline), the comparison group (ARV-771, intravenous injection), and the example group (ECMal-PROTAC, intravenous injection) with DAPI, anti-BRD4, and anti-c-Myc.

4T1 cells = experiment: CCK-8 assay, toxicity on cancer cells; format: cell-based, mouse; conditions: CCK-8, 48 hours
Protocol: The toxicity of ARV-771 and ECMal-PROTAC on cancer cells was analyzed by the CCK-8 (cell counting kit-8) assay. 4T1 cells were dispensed into a 96-well culture plate at 3×10^3 cells per well. They were cultured for 24 hours at 37° C. and 5% carbon dioxide atmosphere. The cells were treated with different concentrations of ARV-771 (0.01 to 100 μM), the complex for cancer targeting (ECMal-PROTAC) of example 1 (0.01 to 100 μM), and the complex for cancer targeting (Mal-PROTAC) of example 2 (0.01 to 100 μM) separately, and cultured for 48 hours. After exposing each well to 10% CCK-8-containing culture media for 30 minutes, the viability of 4T1 cells treated with ARV-771 or 4T1 cells treated with ECMal-PROTAC or Mal-PROTAC was analyzed with a microplate reader. The change in cell viability according to the concentration of ARV-771 or ECMal-PROTAC or Mal-PROTAC was calculated using GraphPad Prism 8 software (GraphPad Software, San Diego, CA, USA) by fitting the IC50 (haf-maximal inhibitory concentration) value.

cancer tissue = experiment: TUNEL analysis of excised cancer tissue; format: in vivo, mouse; conditions: cancer tissue excised after 15 days
Protocol: Cancer animal models were prepared by inoculating 1×10^6 4T1 cells into the left thigh of the mice, and raising them until the tumor volume reached 50-80 mm^3.
as §3
The control group, the comparison group, and the example group were euthanized after 15 days, and major organs (heart, liver, lung, spleen, kidney) and cancer tissue were excised.
Furthermore, to analyze cancer cell apoptosis, TUNEL (terminal deoxynucleotidyl transferase dUTP nick end labeling) analysis was performed on cancer tissue excised from the control group, the comparison group, and the example group. Next, histological analysis was performed by H&E (hematoxylin & eosin) staining of the major organ tissues and cancer tissue of each excised group.

[1] = target: T2, BSA (bovine serum albumin) (Bos taurus, UniProt P02769); experiment: In vitro binding of ECMal-PROTAC to albumin (thiol-maleimide reaction), RP-HPLC; conditions: BSA 200 μM, ECMal-PROTAC 140 μM, 1:1 volume ratio
T2 construct: free Cys34 thiol reacts with maleimide
Protocol: The binding rate of ECMal-PROTAC from example 1 and albumin was confirmed through RP-HPLC. Specifically, a BSA solution (200 μM) diluted with PBS was co-incubated by mixing it with an ECMal-PROTAC aqueous solution (140 μM) of example 1 at a 1:1 volume ratio. The culture was collected at incubation times of 0 minutes, 5 minutes, 30 minutes, and 60 minutes. It was quenched with mercaptoethanol, and HPLC spectra for each sample were acquired through concentration gradient of the eluent (ACN/H2O, 20/80 to 80/20 (v/v), 30 minutes).
To verify the albumin binding ability of the complex for cancer targeting (ECMal-PROTAC) of example 1, the mixture of BSA and the complex for cancer targeting (ECMal-PROTAC) was analyzed by LC-MS spectrum, and compared with the LC-MS spectrum of free BSA.
FIG. 4 is the HPLC spectrum of a mixture of BSA and the complex for cancer targeting (ECMal-PROTAC). According to this, it can be seen that BSA and the complex for cancer targeting (ECMal-PROTAC) rapidly bind through a thiol-maleimide click chemical reaction. To confirm the albumin binding ability of the complex for cancer targeting (ECMal-PROTAC) of example 1, bovine serum albumin (BSA), which has a structure similar to human serum albumin (HSA), was used for analysis.
At this time, the HPLC spectra were also analyzed for a co-incubation of ARV-771 (140 μM) and BSA solution (200 μM) mixed at a 1:1 volume ratio as a comparative example, and for the ECMal-PROTAC solution and BSA solution alone without any treatment of example 1.
From the HPLC results for the BSA and complex for cancer targeting (ECMal-PROTAC) mixture in Experimental Example 1 and the thiol-blocked BSA and complex for cancer targeting (ECMal-PROTAC) mixture in Experimental Example 2, the reduction in the HPLC peak area associated with the complex for cancer targeting (ECMal-PROTAC) was quantified.

Bcl-2 = experiment: Western blot, Bcl-2 level in 4T1 cells; format: cell-based, mouse; conditions: 0 to 10 μM, 24 hours
Protocol: as §1
as §2, with “After blotting, the PVDF membrane was treated with 5% BSA-containing tris buffered saline containing 0.1% Tween 20 (TBS-T) for 2 hours to suppress the non-specific binding of IgG (immunoglobulin G). It was immediately exposed to a rabbit anti-mouse primary antibody (1,000:1). After treating at 4° C. for 24 hours, the PVDF membrane was washed 3 times with TBS-T and further incubated with an HRP-conjugated mouse anti-rabbit IgG antibody at room temperature for 1 hour.” left out

T2 sequence (P02769 25-607): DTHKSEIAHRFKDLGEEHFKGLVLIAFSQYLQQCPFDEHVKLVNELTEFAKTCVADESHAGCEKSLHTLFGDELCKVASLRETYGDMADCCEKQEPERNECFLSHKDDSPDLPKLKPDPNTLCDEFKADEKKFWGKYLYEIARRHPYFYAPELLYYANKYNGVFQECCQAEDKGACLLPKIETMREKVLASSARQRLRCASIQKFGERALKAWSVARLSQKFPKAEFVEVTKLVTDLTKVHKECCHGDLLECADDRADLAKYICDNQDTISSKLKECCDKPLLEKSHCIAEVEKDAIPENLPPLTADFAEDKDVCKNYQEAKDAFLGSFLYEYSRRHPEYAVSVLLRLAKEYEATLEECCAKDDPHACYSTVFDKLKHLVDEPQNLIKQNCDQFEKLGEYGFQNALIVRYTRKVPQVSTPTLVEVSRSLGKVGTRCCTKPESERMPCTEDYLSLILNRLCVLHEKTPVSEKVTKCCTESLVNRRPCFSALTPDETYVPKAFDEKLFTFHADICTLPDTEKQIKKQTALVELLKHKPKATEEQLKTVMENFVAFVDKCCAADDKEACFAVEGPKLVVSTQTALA

Cc1ncsc1-c1ccc([C@H](C)NC(=O)[C@@H]2C[C@@H](OC(=O)CCCCn3nnc4c3CCC3C(CC4)C3COC(=O)NCCOCCOCCNC(=O)CCN3C(=O)C=CC3=O)CN2C(=O)[C@@H](NC(=O)COCCCOCCNC(=O)C[C@@H]2N=C(c3ccc(Cl)cc3)c3c(sc(C)c3C)-n3c(C)nnc32)C(C)(C)C)cc1 (stereo partly drawn) [ECMal-PROTAC]
degradation of overexpressed BRD4 protein (BRD4; 0 to 10 μM): degrades the overexpressed BRD4 protein in a concentration-dependent manner; also recorded: induce BRD4 deficiency
DC50 (BRD4; Western blot, read-out: DC50 (half-maximal degradation concentration), BRD4): 1.81 µM
fluorescence signals related to c-Myc and BRD4 (BRD4 and c-Myc): weaker fluorescence signals
IC50 compared to native ARV-771 (4T1 cells): slight increase in IC50 compared to native ARV-771
IC50 (4T1 cells; Mus musculus, 4T1, FIGS. 15A and 15B, read-out: IC50 against cancer cells): 7.78 µM
cancer cell apoptosis (TUNEL) (cancer tissue): cancer cell apoptosis was induced throughout the entire cancer tissue
completion of thiol-maleimide reaction with BSA within 3 minutes ([1]; within 3 minutes): more than 75%
completion of thiol-maleimide reaction with BSA within 10 minutes ([1]; within 10 minutes): 100%
Bcl-2 level (Bcl-2): reduces the levels; also recorded: reduced expression
